The record followed here is ChEMBL document CHEMBL1201862, “PubChem BioAssay data set” (2004).

Several values for one entry are separate records, joined by “and”; a condition that tells them apart may be missing. Identical values can stand only once.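 Dose response: 5 concentrations. Exposure: 48 h. Format: 96-well plates. Endpoint: linear interpolation; highest concentration if not reached. At the GI50, growth is halved.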 Activity calls are given as the source filed them. No stated cut-off is given here; in the data, active = GI50 up to about 1.1 µM and inactive = higher. Where only a bound is given, the exact number is not on record here.

Among the test systems are SK-OV-3; NCI/ADR-RES; ACHN; Malme-3M; M14; DU-145; UO-31; NCI-H226; EKVX; SF-268; RXF 393; M19-MEL; SNB-19; MDA-MB-435; U-251; MDA-MB-231; IGROV-1; OVCAR-5; SK-MEL-28; RPMI-8226.
Common to all, as to assay: NCI tumour cell line growth inhibition, 48 h

For the molecule `Cc1ccc(S(=O)(=O)SC/C=C\CSS(=O)(=O)c2ccc(C)cc2)cc1`, the GI50 with SK-OV-3 is 43.5 µM (inactive) and 55.8 µM (inactive); with NCI/ADR-RES, 52.2 µM (inactive); with ACHN, 29.6 µM (inactive) and 25.1 µM (inactive); in the assay with Malme-3M it was 34.7 µM (inactive) and 20.2 µM (inactive); in the assay with M14, 13.8 µM (inactive) and 17.4 µM (inactive); with DU-145, 16.4 µM (inactive). In addition, the GI50 in the assay with UO-31 is 55.2 µM (inactive); in the assay on NCI-H226 it was 23.1 µM (inactive) and 24.3 µM (inactive); with EKVX, > 92.7 µM (inactive) and 53.6 µM (inactive); with SF-268, 26.3 µM (inactive) and 19.8 µM (inactive); with RXF 393, 18 µM (inactive) and 22.8 µM (inactive); in the assay with M19-MEL, 35.3 µM (inactive) and 44.6 µM (inactive). Further, the GI50 in the assay on SNB-19 was 34.2 µM (inactive) and 29.6 µM (inactive); in the assay on MDA-MB-435, 5.82 µM (inactive); with U-251, 15.8 µM (inactive) and 15.9 µM (inactive); in the assay with MDA-MB-231 it was 16.4 µM (inactive); in the assay with IGROV-1, 39.2 µM (inactive) and 28.1 µM (inactive).

In the case of `COC12C(COC(=O)NCCO)C3=C(C(=O)C(C)=C(N)C3=O)N1CC1NC12` (stereo not given), the GI50 in the assay on SK-OV-3 is 24.4 µM (inactive); in the assay on NCI/ADR-RES, > 264 µM (inactive); in the assay with ACHN, 6.59 µM (inactive); in the assay with Malme-3M, 21.1 µM (inactive); in the assay with M14, 11.5 µM (inactive); in the assay with DU-145, 39.4 µM (inactive). In addition, the GI50 with OVCAR-5 was 28.7 µM (inactive); with UO-31 it was > 100 µM (inactive); in the assay with SK-MEL-28, > 100 µM (inactive); in the assay with NCI-H226, 16.9 µM (inactive); in the assay with EKVX, > 264 µM (inactive); in the assay with SF-268, 11.6 µM (inactive). The GI50 was 24 µM (inactive) in the assay with RXF 393; 19.8 µM (inactive) in the assay on M19-MEL; 16.4 µM (inactive) with SNB-19; 140 µM (inactive) with MDA-MB-435; 74.8 µM (inactive) in the assay with RPMI-8226; 4.05 µM (inactive) in the assay on U-251. The GI50 is 233 µM (inactive) with MDA-MB-231 and 29.2 µM (inactive) in the assay on IGROV-1.

For the molecule `COC(=O)C(=O)C(C(=O)C(=O)Nc1ccccc1[N+](=O)[O-])c1nc2ccc([N+](=O)[O-])cc2nc1O` (stereo not given), the GI50 in the assay on SK-OV-3, in the assay on ACHN, in the assay with Malme-3M, with M14, with OVCAR-5 and in the assay with UO-31 was > 100 µM (inactive) throughout. Besides, the GI50 in the assay on SK-MEL-28, in the assay on NCI-H226, in the assay on EKVX, in the assay on SF-268, with RXF 393 and in the assay on M19-MEL was > 100 µM (inactive) in each case. In addition, the GI50 in the assay with SNB-19, with RPMI-8226, with U-251 and with IGROV-1 was > 100 µM (inactive) each time.

Turning to `C=CCC1C(=O)CC2(C)CC(=O)C(CC=C)C12C` (stereo not given), the GI50 with SK-OV-3, in the assay with ACHN, in the assay on Malme-3M, with M14, in the assay on OVCAR-5 and with UO-31 was > 100 µM (inactive) throughout. In addition, the GI50 in the assay with SK-MEL-28, in the assay on NCI-H226, in the assay on EKVX, in the assay with SF-268, with RXF 393 and with M19-MEL was > 100 µM (inactive) in each case. The GI50 with SNB-19, in the assay on RPMI-8226, with U-251 and in the assay with IGROV-1 was > 100 µM (inactive) throughout.

With `CCCCCCCCCCCCCCCCCCOCC(COCCOCC[N+]1(CCCCCC(=O)[O-])CCCC1)Oc1ncccn1` (stereo not given), the GI50 with SK-OV-3 is 3.87 µM (inactive); with NCI/ADR-RES it was 15.4 µM (inactive); with ACHN, 10 µM (inactive); in the assay with Malme-3M, 16.7 µM (inactive); with M14, 7.41 µM (inactive); in the assay with DU-145 it was 13.3 µM (inactive). Besides, the GI50 in the assay with OVCAR-5 is 2.99 µM (inactive); in the assay on UO-31 it was 10.1 µM (inactive); in the assay on SK-MEL-28, 6.68 µM (inactive); in the assay with NCI-H226, 11.2 µM (inactive); in the assay on EKVX, 14.6 µM (inactive); in the assay on SF-268, 3.51 µM (inactive). Further, the GI50 with RXF 393 was 1.4 µM (inactive); in the assay on M19-MEL, 0.7 µM (active); with SNB-19, 2.17 µM (inactive); with MDA-MB-435 it was 8.79 µM (inactive); with RPMI-8226, 1.04 µM (active); with U-251, 0.547 µM (active). For the same molecule, the figures for the GI50 with MDA-MB-231 and in the assay on IGROV-1 were 8.22 µM (inactive) and 0.622 µM (active), respectively.

On to `CC1=CC(=O)c2ccc3c4ccccc4n(C)c3c2C1=O`, for which the GI50 with SK-OV-3 was > 100 µM (inactive); in the assay with NCI/ADR-RES it was > 100 µM (inactive); with ACHN, 55.6 µM (inactive); in the assay on Malme-3M it was 6.67 µM (inactive); in the assay with M14 it was 17.8 µM (inactive); in the assay on DU-145, 63.2 µM (inactive). Besides, the GI50 with OVCAR-5 was > 100 µM (inactive); in the assay on UO-31, > 65.9 µM (inactive); with SK-MEL-28, 60.7 µM (inactive); in the assay on NCI-H226, > 94.4 µM (inactive); in the assay on EKVX it was > 19.8 µM (inactive); in the assay on SF-268 it was > 70 µM (inactive). Further, the GI50 in the assay with RXF 393 was 43.6 µM (inactive); with M19-MEL, 10.1 µM (inactive); with SNB-19, 39.1 µM (inactive); with MDA-MB-435, 17.1 µM (inactive); with RPMI-8226, > 41.2 µM (inactive); in the assay on U-251 it was 49 µM (inactive). In addition, the GI50 in the assay on MDA-MB-231 was 70.6 µM (inactive); in the assay with IGROV-1, 16.9 µM (inactive).

As for `CSC1C=C(C(C)C)CCC1(C)SC` (stereo not given), the GI50 in the assay with SK-OV-3 is 21.4 µM (inactive); in the assay on ACHN it was 18.7 µM (inactive); with Malme-3M, 13.3 µM (inactive); in the assay with M14, 16.9 µM (inactive); in the assay on OVCAR-5 it was 16.2 µM (inactive); in the assay with UO-31 it was 14.3 µM (inactive). The GI50 is 19.4 µM (inactive) in the assay on SK-MEL-28; 17.4 µM (inactive) with NCI-H226; 24.5 µM (inactive) in the assay with EKVX; 20.6 µM (inactive) in the assay with SF-268; 15.5 µM (inactive) with RXF 393; 16.9 µM (inactive) in the assay on M19-MEL. Moreover, the GI50 was 21.2 µM (inactive) in the assay on SNB-19, 20.9 µM (inactive) in the assay on RPMI-8226, 19.5 µM (inactive) with U-251 and 20.9 µM (inactive) in the assay with IGROV-1.
